Reference: ChEMBL document CHEMBL3507680, “University of Dundee, Gates Library screen for HepG2 cell viability”

Experiment: Human HepG2 cell viability assay in 384 well format
Assay type: toxicity, cell-based
Set-up: dose 125 nL, time 70.5 hour; concentration not given beside the values
Settings: HepG2 cells, read-out: Inhibition

SMILES | cytotoxicity at 70.5 h
O=C1CC(c2cccnc2)c2c(c(C(=O)O)cn2-c2cccc(F)c2)N1 (configuration not stated) | -8.96%
Cc1n[nH]c2nc(-c3ccccc3O)cc(C(=O)O)c12 | 13.5%
Cn1cc(C2SCC(=O)Nc3c2cnn3C(C)(C)C)cn1 (configuration not stated) | 0.666%
CC(C)(C)n1ncc2c1NC(=O)CSC2c1ccsc1 (configuration not stated) | -13.1%
COc1ccccc1CNC(=O)COc1c(C)n(C)ccc1=O | -20.3%
CC1CC(=O)c2cc(C(=O)N3CCOCC3)c(=O)[nH]c2C1 (configuration not stated) | -0.268%
O=C(NCCc1cccc(F)c1)C1(n2cnnn2)CCCCC1 | -3.65%
Cc1nn(C)cc1-c1nn2c(C(F)(F)F)nnc2s1 | -9.41%
CN(C)C(CNc1c(NCc2ccco2)c(=O)c1=O)c1ccccc1 (configuration not stated) | -8.7%
CC1CCN(c2ccc(=O)n(CC(=O)N(C)Cc3ccccc3)n2)CC1 | 16.3%
O=c1c(NCc2ccccn2)c(NCC(O)CN2CCOCC2)c1=O (configuration not stated) | -12.9%
Cc1nn(C2CCS(=O)(=O)C2)c(O)c1Cc1ccc(Br)cc1 (configuration not stated) | 19.3%
O=C(NC1CCCCC1)c1ccc(Oc2ccc3nncn3n2)cc1 | -7.56%
CC(C)CNC(=O)CNc1c(NCc2ccco2)c(=O)c1=O | 0.885%
Cc1nc(NC(=O)CCN2C(=O)c3ccccc3NC2C(C)C)sc1C (configuration not stated) | -0.712%
CC(C)CNc1c(NCc2ccco2)c(=O)c1=O | -11.5%
COCCn1ccc(=O)c(OCC(=O)Nc2cccc(OC)c2)c1C | 13.8%
COCCn1ccc(=O)c(OCC(=O)Nc2ccc(OC)c(Cl)c2)c1C | -5.11%
COc1ccc(CNc2c(N3CCN(C(C)=O)CC3)c(=O)c2=O)cc1 | -12.5%
O=c1c(NCCc2ccc(O)cc2)c(NCc2ccco2)c1=O | -4.28%
COc1cc(OC)cc(-c2noc(C(N)CCSC)n2)c1 (configuration not stated) | -2.69%
Cc1c(C(=O)N2CCNC(=O)C2)sc2nc[nH]c(=O)c12 | 13.4%
Cc1cccc(C)c1NC(=O)CC(CN1CCN(C)CC1)C(=O)O (configuration not stated) | -15.8%
CCCn1[nH]c(CNc2cccc(Cl)c2)nc1=O | -15.4%

SMILES | cytotoxicity at 70.5 h
COc1c[nH]c(C(=O)N2CCN(c3ccc(Cl)cc3)CC2)cc1=O | 20.3%
CCn1c(=O)nc(N)c2c(-c3ccc(OC)cc3)csc21 | -10.3%
Cc1nc2sc(C(=O)N3CCNC(=O)C3)c(C)c2c(=O)[nH]1 | -4.68%
Cc1cc(NCc2ccco2)nc2[nH]nc(N)c12 | -3.79%
COCCn1ccc(=O)c(OCC(=O)Nc2ccc(Br)cc2)c1C | -7.36%
Cc1ccsc1C1CC(=O)Nc2c1cnn2C(C)C (configuration not stated) | -7.26%
Cc1ccc(C(=O)Nc2nnc(C3CC3)s2)c(-n2cnnn2)c1C | -14.4%
O=C(COc1coc(CN2CCCC2)cc1=O)Nc1cc(Cl)ccc1Cl | -7.96%
COC(=O)c1ccc(C2SC(C)=Nc3c2c(=O)[nH]n3C2CCCC2)cc1 (configuration not stated) | -14.5%
O=C(COc1coc(CN2CCCC2)cc1=O)Nc1ccc(Cl)c(Cl)c1 | -7.3%
Cc1ccc(OCC(C)NS(C)(=O)=O)cc1C (configuration not stated) | -3.53%
Cc1cc(CN2CCc3nc(C)n(C)c(=O)c3CC2)[nH]n1 | -5.95%
COCCn1cnnc1CCNc1cc(C)nc2ccnn12 | -2.09%
CC(C)(C)n1ncc2c1NC(=O)CC2c1cccc(F)c1 (configuration not stated) | 3.13%
COc1ccc(-c2n[nH]cc2CN(C)CCc2scnc2C)c(F)c1 | 1.84%
Cc1nn(C)c2nc(N3CCC(C(O)Cc4ccccc4)CC3)sc12 (configuration not stated) | -2.11%
CCC(CO)N(CC=C(C)C)Cc1ccsc1 (configuration not stated) | -2.49%
COc1ccc(C(C)NC(=O)C2CCN(S(C)(=O)=O)CC2)cc1C (configuration not stated) | -4.77%
CCCn1ncc(C(=O)N2CCCC(OCc3ccccn3)C2)c1C (configuration not stated) | -4.73%
CCc1cc(NCCCC2CCOC2)n2nccc2n1 (configuration not stated) | -1.93%
Fc1ccc(NC2CCCN(Cc3ccncc3)C2)cc1 (configuration not stated) | 26.1%
Cc1nc2c(cc1C(=O)Nc1ccccc1Cl)c(=O)n(C)c(=O)n2C | -9.88%
CCS(=O)(=O)N1CCN(c2cc(-n3cnc(C)c3C)nc(C)n2)CC1 | -2.19%
CCCNC(=O)C(C)Oc1ccc(F)cc1 (configuration not stated) | -12.9%

SMILES | cytotoxicity at 70.5 h
COc1ccc(OC)c(NC(=O)c2cc3c([nH]c2=O)CCCC3=O)c1 | -4.78%
CC(C)COc1ccccc1CN(C)C(=O)c1cc(=O)[nH]c(=O)[nH]1 | -8.79%
CC(C1CCN(Cc2cnn(C)c2C2CC2)CC1)N(C)C (configuration not stated) | -7.09%
Cc1nc(CCN(C)C(=O)CN2CCCCCC2)no1 | -9.68%
CCN(Cc1ccc(S(C)(=O)=O)cc1)Cc1nc(COC)no1 | -11.1%
c1cnn(CC2CN(Cc3csc(C4CCCCC4)n3)CCO2)c1 (configuration not stated) | -0.469%
CCNc1cc2c(nn1)CCN(C(=O)c1c(C)noc1C)C2 | -2.94%
c1ccc(-c2nc(CN3CCOC(Cn4cncn4)C3)cs2)cc1 (configuration not stated) | -3.05%
CCNc1cc2c(nn1)CCN(C(=O)Cc1ccc(C)s1)C2 | 0.997%
Cc1cnn(CCC(=O)NC2CCc3nc(C)cn3C2)c1 (configuration not stated) | -3.94%
O=C(CCCn1cncn1)NC1CCc2nccn2C1 (configuration not stated) | -0.0953%
CCc1cnc(CN(C(C)=O)C2CCN(CC(=O)N3CCCC3)C2)o1 (configuration not stated) | -4.28%
Cc1cccc(OCCNC(=O)CN2CCN(C)CC2C)c1 (configuration not stated) | 25.2%
CSC(C)C(=O)N(C)CCCc1cc(-c2ccccc2)no1 (configuration not stated) | 27.1%
CCc1noc(C(C)N2CCN(CCOCC(F)(F)F)CC2)n1 (configuration not stated) | -2.37%
Cc1ccc(CC(=O)N2CCCC(c3ccn[nH]3)C2)cn1 (configuration not stated) | 0.114%
O=C(Nc1cccc(CNCc2cccnc2)c1)C1CCCC1 | -4.79%
CC(c1cccc(Cl)c1)N(C)Cc1nc2c(cnn2C)c(=O)[nH]1 (configuration not stated) | -1.63%
COc1ccc(C(C)N(C)Cc2nc3c(cnn3C)c(=O)[nH]2)cc1 (configuration not stated) | -8.42%
CNC(=O)NC(=O)C(C)N(C)CCCc1cc(-c2ccccc2)no1 (configuration not stated) | -1.15%
COc1cccc(N2CCN(C(=O)CN(C)c3cnccn3)CC2)c1 | -1.38%
O=C(O)c1cc(NS(=O)(=O)c2ccc(Br)s2)c(F)cc1F | 1.5%
O=C1NCCN1C1CCN(CCOc2ccccc2F)CC1 | -5.97%
CCn1ccnc1CN1CCN(Cc2cc(C#N)ccc2F)CC1 | -3.57%

SMILES | cytotoxicity at 70.5 h
Clc1ccc(CN2CCCC2Cn2cncn2)c2ncccc12 (configuration not stated) | -2.37%
CCOC1CCN(C(=O)CN(C)c2cnccn2)CC1 | -4.29%
Cc1ccc(CC(=O)N2CCCC(c3nccs3)C2)cn1 (configuration not stated) | -4.34%
CC(C)Oc1ccc(CNC(=O)NCC(C)(C)C(N)=O)cc1F | -5.2%
CNc1nc(CNC(=O)Nc2ccc([S+](C)[O-])c(F)c2)cs1 (configuration not stated) | -2.75%
CC(c1cc(F)ccc1F)N(C)Cc1nc2c(cnn2C)c(=O)[nH]1 (configuration not stated) | 10.4%
Clc1ccc2cccnc2c1CN1CCCCC1Cn1cncn1 (configuration not stated) | -4.31%
CC(=O)N1CCCN(C(=O)NCCNc2ccccn2)CC1 | 2.71%
CN(Cc1ccc(N(C)C)cc1)C(=O)c1cc2c([nH]c1=O)CCCC2=O | -4.35%
Cc1nc(CNC(=O)N(C)Cc2cnn(C)c2)cs1 | 9.64%
CC(NC(=O)NCCCn1cncn1)c1ccc2c(c1)CC(=O)N2 (configuration not stated) | -1.37%
COCCCNC(=O)CN(C)C(=O)c1ccccc1O | -3.02%
CC(NC(=O)NCCCn1cncn1)c1ccncc1 (configuration not stated) | 2.26%
CN(Cc1ccsc1)C(=O)c1cc2c([nH]c1=O)CCC2 | -4.53%
COCCCNC(=O)CN(C)C(=O)c1cc(Cl)ccc1O | 0.174%
Cn1cc(C2CCCN2C(=O)c2ccc(NC3CC3)nc2)cn1 (configuration not stated) | 0.0682%
CCc1nc(CN2CCCN(C(=O)c3cnc(C)cn3)CC2)cs1 | 1.16%
CCc1nc(CN2CCCN(C(=O)c3ccnc(C)n3)CC2)cs1 | 3.9%
CNC(=O)c1ccc(C(=O)N2CCCC2c2c(C)nn(C)c2C)cn1 (configuration not stated) | -4.27%
O=C(c1cnccn1)N1CCN(Cc2cscn2)CC1 | 31.3%
Cc1nn(C)c(C)c1C1CCCN1C(=O)c1ccc(C(N)=O)cn1 (configuration not stated) | 4.05%
Cc1ncsc1C(=O)NCCNC(=O)c1cccs1 | -3.7%
CC(NC(=O)NCCCn1cccn1)c1ccc2c(c1)OCCCO2 (configuration not stated) | 13.2%
Cc1cccc(OCCN2CCN(Cc3cnn(CCO)c3)CC2)c1 | -1.35%

SMILES | cytotoxicity at 70.5 h
Cc1ccc(CNC(=O)CN2CCOC(Cn3cccn3)C2)s1 (configuration not stated) | -4.52%
Cc1ccccc1OCCN1CCN(Cc2cnn(CCO)c2)CC1 | 4.76%
Cc1csc(N2CCN(CC(=O)N3CCCC3)CC2C)n1 (configuration not stated) | 1.56%
Cc1ccc(N(CCC#N)C(=O)CN2CCCC2c2ccsc2)cc1 (configuration not stated) | 0.989%
CN(C)c1ccc(C(=O)N2CCCC2c2noc(C3CC3)n2)nn1 (configuration not stated) | 13.8%
CCc1nnc2n1CCN(CC(O)c1ccc3c(c1)OCCO3)C2 (configuration not stated) | 23.6%
CC(C)c1nc(C2CCCN2C(=O)c2ccc(C#N)cn2)no1 (configuration not stated) | 1.98%
CCC1CCCN(Cc2nc(N)c3ccccc3n2)C1 (configuration not stated) | 4.3%
CCCc1nc(C)c(C(=O)NCCn2nc3ccccn3c2=O)s1 | 19.2%
CCc1nc(C)c(C(=O)NCCn2nc3ccccn3c2=O)s1 | -3.88%
Cc1nc(C(C)C)sc1C(=O)NCCn1nc2ccccn2c1=O | -1.52%
O=C(NCCn1nc2ccccn2c1=O)c1sccc1-c1ccccc1 | -5.5%
CCc1ccsc1C(=O)NCCn1nc2ccccn2c1=O | -5.41%
CC1CN(CC(=O)Nc2ccncc2)CCN1Cc1nccn1C (configuration not stated) | -0.423%
CC1CN(CC(=O)N2CCOCC2)CCN1Cc1nccn1C (configuration not stated) | -2.16%
CC1CN(CC(=O)NC2CCOCC2)CCN1Cc1nccn1C (configuration not stated) | -0.539%
c1nc(N2CCCC2Cn2cncn2)c2sccc2n1 (configuration not stated) | -4.84%
c1ccc2oc(CN3CCCC(Cn4cncn4)C3)nc2c1 (configuration not stated) | -1.69%
CN(C)CCn1c(=O)n(C)c(=O)c2ccccc21 | 18.7%
CC(C)n1c(=O)c2ccccc2n(CCCN(C)C)c1=O | -12.5%
O=C(Nc1cccc(CNCc2cccs2)c1)C1CC1 | -8.51%
